Assay results reported in US9376436B2, “2-(pyridin-2yl)-1, 7-diaza-spiro [4.4] nonane-6-one compound as voltage-gated sodium channels modulators” (CONVERGENCE PHARMACEUTICALS LIMITED, priority 2011, dated 2016).
Where a name gives a salt, the structure may show the parent alone. Read-outs that look alike come from different tables or passages of the source.

Target: T1, hNaV1.7 (Homo sapiens, UniProt Q15858)
T1 construct: expressed in transfected cells; host or cells: HEK293
Experiment: QPatch NaV1.7 assay (whole-cell patch clamp, QPatch16x)
Assay type: cell-based
Conditions: HEK293-hNaV1.7 cells
In short: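 Automated whole-cell recordings in hNaV1.7-expressing HEK293 cells, holding at either −90 mV (mostly closed channels) or the half-inactivation voltage. Compounds applied cumulatively at four concentrations for 120 s each; peak current on 20 ms depolarisation to 0 mV fitted by Hill equation to yield pIC50.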

[1] = holding voltage V1/2 SSI (half of channels inactivated), read-out: QP Nav1.7 SSI vhalf pIC50 (converted)
[2] = holding voltage −90 mV (most channels closed), read-out: QP Nav1.7 −90 mV pIC50 (converted)

T1 sequence (Q15858 whole entry): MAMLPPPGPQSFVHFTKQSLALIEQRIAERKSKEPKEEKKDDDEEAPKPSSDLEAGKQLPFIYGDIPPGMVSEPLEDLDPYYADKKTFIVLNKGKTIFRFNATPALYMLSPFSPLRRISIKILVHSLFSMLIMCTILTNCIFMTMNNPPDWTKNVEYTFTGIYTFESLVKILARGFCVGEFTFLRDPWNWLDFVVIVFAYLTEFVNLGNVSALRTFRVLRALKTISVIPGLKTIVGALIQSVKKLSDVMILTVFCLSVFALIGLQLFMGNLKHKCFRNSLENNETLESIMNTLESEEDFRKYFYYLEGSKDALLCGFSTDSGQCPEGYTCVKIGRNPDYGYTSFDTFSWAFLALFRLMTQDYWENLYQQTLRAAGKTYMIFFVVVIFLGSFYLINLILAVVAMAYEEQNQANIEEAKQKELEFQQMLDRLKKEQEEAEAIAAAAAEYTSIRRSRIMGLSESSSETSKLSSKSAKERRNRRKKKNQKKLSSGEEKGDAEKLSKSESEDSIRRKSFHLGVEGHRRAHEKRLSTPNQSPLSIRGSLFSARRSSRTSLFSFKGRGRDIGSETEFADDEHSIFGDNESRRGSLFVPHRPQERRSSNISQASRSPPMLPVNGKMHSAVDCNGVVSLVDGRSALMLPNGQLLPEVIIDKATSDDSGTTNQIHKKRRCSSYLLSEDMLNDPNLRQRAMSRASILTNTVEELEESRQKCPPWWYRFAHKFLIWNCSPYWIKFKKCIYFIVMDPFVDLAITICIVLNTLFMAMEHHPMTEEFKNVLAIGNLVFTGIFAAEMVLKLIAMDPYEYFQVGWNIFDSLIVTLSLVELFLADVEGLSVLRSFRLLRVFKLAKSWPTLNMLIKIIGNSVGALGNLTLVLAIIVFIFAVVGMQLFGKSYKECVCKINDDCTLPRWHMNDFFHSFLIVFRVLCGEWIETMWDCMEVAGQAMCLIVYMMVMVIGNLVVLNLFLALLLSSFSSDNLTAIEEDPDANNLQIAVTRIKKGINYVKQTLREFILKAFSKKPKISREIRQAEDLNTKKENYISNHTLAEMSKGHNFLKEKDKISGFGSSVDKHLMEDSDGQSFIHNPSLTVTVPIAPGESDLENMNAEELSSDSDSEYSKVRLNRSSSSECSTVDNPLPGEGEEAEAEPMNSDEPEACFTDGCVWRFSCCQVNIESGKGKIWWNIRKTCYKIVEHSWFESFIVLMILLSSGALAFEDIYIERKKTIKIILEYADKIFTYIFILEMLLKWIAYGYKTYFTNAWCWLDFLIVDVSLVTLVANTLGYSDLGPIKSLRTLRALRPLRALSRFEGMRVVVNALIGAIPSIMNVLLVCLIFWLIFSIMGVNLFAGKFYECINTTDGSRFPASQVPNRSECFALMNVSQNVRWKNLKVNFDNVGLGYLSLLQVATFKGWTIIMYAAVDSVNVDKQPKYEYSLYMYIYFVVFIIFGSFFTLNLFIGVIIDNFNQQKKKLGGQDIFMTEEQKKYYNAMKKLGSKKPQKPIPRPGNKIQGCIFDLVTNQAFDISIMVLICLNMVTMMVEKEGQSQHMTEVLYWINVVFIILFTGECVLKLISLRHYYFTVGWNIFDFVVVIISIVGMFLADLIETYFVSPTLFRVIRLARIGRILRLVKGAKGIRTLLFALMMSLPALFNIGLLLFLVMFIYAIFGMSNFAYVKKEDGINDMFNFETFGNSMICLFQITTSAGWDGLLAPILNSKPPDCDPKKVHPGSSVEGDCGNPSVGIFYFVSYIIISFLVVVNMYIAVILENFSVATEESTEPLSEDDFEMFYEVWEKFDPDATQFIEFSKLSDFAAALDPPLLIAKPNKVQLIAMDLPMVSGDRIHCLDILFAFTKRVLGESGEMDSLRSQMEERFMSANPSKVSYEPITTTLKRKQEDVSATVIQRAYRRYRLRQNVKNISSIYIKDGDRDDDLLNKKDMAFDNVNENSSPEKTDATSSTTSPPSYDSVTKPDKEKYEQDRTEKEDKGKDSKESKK

CN1CC[C@@]2(CC[C@H](c3cc(-c4cc(-n5cccn5)ccc4F)ccn3)N2)C1=O [Example 184, (2R,5S)-2-[4-(2-Fluoro-5-pyrazol-1-yl-phenyl)-2-pyridyl]-7-methyl-1,7-diazaspiro[4.4]nonan-6-one hydrochloride]
IC50 [1]: 10 µM
IC50 [2]: 126 µM

CN1CC[C@@]2(CC[C@H](c3cc(-c4cc(OC(F)(F)F)ccc4F)ccn3)N2)C1=O [Example 176, (2R,5S)-2-[4-[2-Fluoro-5-(trifluoromethoxy)phenyl]-2-pyridyl]-7-methyl-1,7-diazaspiro[4.4]nonan-6-one hydrochloride]
IC50 [1]: 20 µM
IC50 [2]: 200 µM

CCn1cc2cc(F)c(-c3ccnc([C@H]4CC[C@@]5(CCN(C)C5=O)N4)c3)cc2n1 [Example 259, (2R,5S)-2-[4-(2-Ethyl-5-fluoro-indazol-6-yl)-2-pyridyl]-7-methyl-1,7-diazaspiro[4.4]nonan-6-one hydrochloride]
IC50 [1]: 1260 µM
IC50 [2]: 158 µM

CN1CC[C@@]2(CC[C@H](c3cc(-c4cc(OC5CC5)ccc4F)ccn3)N2)C1=O [Example 185, (2R,5S)-2-[4-[5-(Cyclopropoxy)-2-fluoro-phenyl]-2-pyridyl]-7-methyl-1,7-diazaspiro[4.4]nonan-6-one hydrochloride]
IC50 [1]: 7.94 µM
IC50 [2]: 63.1 µM

Cc1c(-c2ccc(C(F)(F)F)cc2)ccnc1[C@H]1CC[C@]2(CCN(C)C2=O)N1 [Example 14, (2R,5R)-7-Methyl-2-[3-methyl-4-[4-(trifluoromethyl)phenyl]-2-pyridyl]-1,7-diazaspiro[4.4]nonan-6-one hydrochloride]
IC50 [1]: 10 µM
IC50 [2]: 63.1 µM

O=C1NCCC[C@@]12CC[C@@H](c1cc(-c3ccc(F)cc3)ccn1)N2 [Example 110, (2S,5R)-2-[4-(4-Fluoro-phenyl)-pyridin-2-yl]-1,7-diaza-spiro[4.5]decan-6-one hydrochloride]
IC50 [1]: 10 µM
IC50 [2]: 251 µM

O=C1NCC[C@]12CC[C@H](c1cc(-c3cccc(OC(F)(F)F)c3)ccn1)N2 [Example 117, (2R,5R)-2-[4-[3-(Trifluoromethoxy)phenyl]-2-pyridyl]-1,7-diazaspiro[4.4]nonan-6-one hydrochloride]
IC50 [1]: 0.398 µM
IC50 [2]: 7.94 µM

Cc1cnn(-c2ccc(F)c(-c3ccnc([C@H]4CC[C@@]5(CCN(C)C5=O)N4)c3)c2)c1 [Example 183, (2R,5S)-2-[4-[2-Fluoro-5-(4-methylpyrazol-1-yl)phenyl]-2-pyridyl]-7-methyl-1,7-diazaspiro[4.4]nonan-6-one hydrochloride]
IC50 [1]: 3.16 µM
IC50 [2]: 63.1 µM

Cc1cscc1-c1ccnc([C@H]2CC[C@@]3(CCN(C)C3=O)N2)c1 [Example 78, (2R,5S)-7-Methyl-2-[4-(4-methyl-3-thienyl)-2-pyridyl]-1,7-diazaspiro[4.4]nonan-6-one hydrochloride]
IC50 [1]: 12.6 µM
IC50 [2]: 158 µM

CCCOc1ccc(F)c(-c2cc(C)nc([C@H]3CC[C@@]4(CCN(C)C4=O)N3)c2)c1 [Example 196, (2R,5S)-2-[4-(2-Fluoro-5-propoxy-phenyl)-6-methyl-2-pyridyl]-7-methyl-1,7-diazaspiro[4.4]nonan-6-one hydrochloride]
IC50 [1]: 0.1 µM
IC50 [2]: 1.58 µM

O=C1NCC[C@@]12CC[C@H](c1cc(-c3ccc(C(F)(F)F)cc3)ccn1)N2 [Example 37, (2R,5S)-2-[4-[4-(Trifluoromethyl)phenyl]-2-pyridyl]-1,7-diazaspiro[4.4]nonan-6-one hydrochloride]
IC50 [1]: 0.794 µM
IC50 [2]: 25.1 µM

Cc1ccnn1-c1ccc(F)c(-c2ccnc([C@H]3CC[C@@]4(CCN(C)C4=O)N3)c2)c1 [Example 193, (2R,5S)-2-[4-[2-Fluoro-5-(5-methylpyrazol-1-yl)phenyl]-2-pyridyl]-7-methyl-1,7-diazaspiro[4.4]nonan-6-one hydrochloride]
IC50 [1]: 50.1 µM
IC50 [2]: 5010 µM

CCOc1ccc(F)c(-c2cc([C@@H]3CC[C@]4(CCN(C)C4=O)N3)nc(C)c2C)c1 [Example 143, (2S,5R)-2-[4-(5-Ethoxy-2-fluoro-phenyl)-5,6-dimethyl-2-pyridyl]-7-methyl-1,7-diazaspiro[4.4]nonan-6-one hydrochloride]
IC50 [1]: 10 µM
IC50 [2]: 63.1 µM

CN1CC[C@@]2(CC[C@H](c3cc(-c4ccc(F)c(F)c4)ccn3)N2)C1=O [Example 11, (2R,5S)-2-[4-(3,4-Difluorophenyl)-2-pyridyl]-7-methyl-1,7-diazaspiro[4.4]nonan-6-one hydrochloride]
IC50 [1]: 25.1 µM
IC50 [2]: 200 µM

CCOc1ccc(F)c(-c2cc([C@H]3CC[C@]4(CCN(C)C4=O)N3)ncc2F)c1 [Example 222, (2R,5R)-2-[4-(5-Ethoxy-2-fluoro-phenyl)-5-fluoro-2-pyridyl]-7-methyl-1,7-diazaspiro[4.4]nonan-6-one hydrochloride]
IC50 [1]: 25.1 µM
IC50 [2]: 398 µM

CCOc1ccc(F)c(-c2cc([C@H]3CC[C@@]4(CCN(C)C4=O)N3)ncc2C)c1 [Example 137, (2R,5S)-2-[4-(5-Ethoxy-2-fluoro-phenyl)-5-methyl-2-pyridyl]-7-methyl-1,7-diazaspiro[4.4]nonan-6-one hydrochloride]
IC50 [1]: 20 µM
IC50 [2]: 158 µM

CN1CC[C@@]2(CC[C@H](c3cc(-c4ccc(OC(F)(F)F)cc4)ccn3)N2)C1=O [Example 5, (2R,5S)-7-Methyl-2-[4-(4-trifluoro-methoxy-phenyl)-pyridin-2-yl]-1,7-diaza-spiro[4.4]nonan-6-one hydrochloride]
IC50 [1]: 3.98 µM
IC50 [2]: 25.1 µM

CCOc1cc(-c2cc(C)nc([C@H]3CC[C@]4(CCN(C)C4=O)N3)c2)ccc1F [Example 124, (2R,5R)-2-[4-(3-Ethoxy-4-fluoro-phenyl)-6-methyl-2-pyridyl]-7-methyl-1,7-diazaspio[4.4]nonan-6-one hydrochloride]
IC50 [1]: 7.94 µM
IC50 [2]: 126 µM

CN1CCC[C@]2(CC[C@H](c3cc(-c4ccc(C(F)(F)F)cc4)ccn3)N2)C1=O [Example 70, (2R,5S)-7-Methyl-2-[4-(4-trifluoromethyl-phenyl)-pyridin-2-yl]-1,7-diaza-spiro[4.5]decan-6-one hydrochloride]
IC50 [1]: 1 µM
IC50 [2]: 12.6 µM

Cc1cc(-c2ccc(C(F)(F)F)cc2)cc([C@H]2CC[C@]3(CCN(C)C3=O)N2)n1 [Example 31, (2R,5R)-7-Methyl-2-[6-methyl-4-[4-(trifluoromethyl)phenyl]-2-pyridyl]-1,7-diazaspiro[4.4]nonan-6-one hydrochloride]
IC50 [1]: 20 µM
IC50 [2]: 79.4 µM

O=C1NCC[C@@]12CC[C@H](c1cc(-c3cccc(OC(F)(F)F)c3)ccn1)N2 [Example 118, (2R,5S)-2-[4-[3-(Trifluoromethoxy)phenyl]-2-pyridyl]-1,7-diazaspiro[4.4]nonan-6-one hydrochloride]
IC50 [1]: 7.94 µM
IC50 [2]: 50.1 µM

CCc1ccc(F)c(-c2cc(C)nc([C@H]3CC[C@@]4(CCN(C)C4=O)N3)c2)c1 [Example 204, (2R,5S)-2-[4-(5-Ethyl-2-fluoro-phenyl)-6-methyl-2-pyridyl]-7-methyl-1,7-diazaspiro[4.4]nonan-6-one hydrochloride]
IC50 [1]: 5.01 µM
IC50 [2]: 31.6 µM

CN1CC[C@@]2(CC[C@H](c3cc(-c4cc5[nH]ncc5cc4F)ccn3)N2)C1=O [Example 186, (2R,5S)-2-[4-(5-Fluoro-1H-indazol-6-yl)-2-pyridyl]-7-methyl-1,7-diazaspiro[4.4]nonan-6-one hydrochloride]
IC50 [1]: 158 µM
IC50 [2]: 6310 µM

Cc1cc(-c2ccc(OC(C)C)nc2)cc([C@@H]2CC[C@]3(CCN(C)C3=O)N2)n1 [Example 209, (2S,5R)-2-[4-(6-Isopropoxy-3-pyridyl)-6-methyl-2-pyridyl]-7-methyl-1,7-diazaspiro[4.4]nonan-6-one hydrochloride]
IC50 [1]: 3.16 µM
IC50 [2]: 25.1 µM

CN1CCC[C@]2(CC[C@H](c3cc(-c4ccc(F)cc4)ccn3)N2)C1=O [Example 74, (2R,5S)-2-[4-(4-Fluoro-phenyl)-pyridin-2-yl]-7-methyl-1,7-diaza-spiro[4.5]decan-6-one hydrochloride]
IC50 [1]: 7.94 µM
IC50 [2]: 63.1 µM

CN1CCC[C@@]2(CC[C@@H](c3cc(-c4ccc(F)cc4)ccn3)N2)C1=O [Example 72, (2S,5R)-2-[4-(4-Fluoro-phenyl)-pyridin-2-yl]-7-methyl-1,7-diaza-spiro[4.5]decan-6-one hydrochloride]
IC50 [1]: 20 µM
IC50 [2]: 158 µM

CCOc1ccc(F)c(-c2cc(C)nc([C@H]3CC[C@@]4(CCN(C)C4=O)N3)c2)c1 [Example 93, (2R,5S)-2-[4-(5-Ethoxy-2-fluoro-phenyl)-6-methyl-pyridin-2-yl]-7-methyl-1,7-diaza-spiro[4.4]nonan-6-one hydrochloride]
IC50 [1]: 3.98 µM
IC50 [2]: 39.8 µM

CN1CC[C@@]2(CC[C@H](c3cc(-c4ccc(Cl)cc4)ccn3)N2)C1=O [Example 13, (2R,5S)-2-[4-(4-Chlorophenyl)-2-pyridyl]-7-methyl-1,7-diazaspiro[4.4]nonan-6-one hydrochloride]
IC50 [1]: 6.31 µM
IC50 [2]: 25.1 µM

CN1CCC[C@]2(CC[C@@H](c3cc(-c4ccc(C(F)(F)F)cc4)ccn3)N2)C1=O [Example 69, (2S,5S)-7-Methyl-2-[4-(4-trifluoromethyl-phenyl)-pyridin-2-yl]-1,7-diaza-spiro[4.5]decan-6-one hydrochloride]
IC50 [1]: 7.94 µM
IC50 [2]: 31.6 µM

O=C1NCCC[C@]12CC[C@H](c1cc(-c3ccc(F)cc3)ccn1)N2 [Example 112, (2R,5S)-2-[4-(4-Fluoro-phenyl)-pyridin-2-yl]-1,7-diaza-spiro[4.5]decan-6-one hydrochloride]
IC50 [1]: 3.98 µM
IC50 [2]: 39.8 µM

CN1CC[C@@]2(CC[C@H](c3cc(-c4cccc(-n5cccn5)c4)ccn3)N2)C1=O [Example 173, (2R,5S)-7-Methyl-2-[4-(3-pyrazol-1-ylphenyl)-2-pyridyl]-1,7-diazaspiro[4.4]nonan-6-one hydrochloride]
IC50 [1]: 12.6 µM
IC50 [2]: 200 µM
